# Assay results reported in patent US20120129822A1, “COMPOSITION CONTAINING DIOSGENIN AND USE THEREOF TO IMPROVE AT LEAST ONE OF COGNITIVE DEFICITS ASSOCIATED WITH MENOPAUSAL SYNDROME” (TL & GM Chemical Company, priority 2010, published 2012).
# “Also recorded” adds a separate entry of the source.
# Key:
# [1] = system: OVX rats having clinical signs of osteoporosis; conditions: sustained delivery; cited from earlier work
# OVX rats without anxiety = assay: Learned helplessness test (day-2 active avoidance test, shuttle box), OVX rats without anxiety; assay type: in vivo, female Wistar rats; conditions: for Avoidance response (number) / Escape response (number) / Failure response (number): 23 days, 16 trials, mean±SEM
# Method: (§1) Three daily dosages of diosgenin, i.e., 10, 50, or 100 mg/kg, were administered to the experimental animals in the following experiments. A proper amount of diosgenin (Sigma, USA, required for formulating a respective one of the three daily dosages) was mixed with 1 g of toast or raw dough (prepared by mixing flour and water in a ratio of 2:1 (wt/wt)), thereby forming a diosgenin-containing pellet. The experimental animals were orally administered with the diosgenin-containing pellets, starting about 4 weeks after ovariectomy.
# (§2) A shuttle box used in Example 1 (AccuScan, USA) is composed of two equal compartments. Each of the compartments has a grid floor made of stainless steel bars. The compartments are separated by a wall having a central door. Specifically, the central door can be closed to separate the two compartments, or can be opened to allow the experimental animals to move freely between the two compartments therethrough. A conditioned stimulus (CS, a stimulus consisting of a tone (75 db) and a light (250 lux) and lasting 3 seconds) and an unconditioned stimulus (UCS, an electric foot shock (0.5 mA) lasting a maximum of 10 seconds) were administered to the experimental animals from the shuttle box under control of a computer. The shuttle box was thoroughly cleaned using 20% ethanol and was subsequently thoroughly dried before each of the experimental animals was tested.
# (§3) The OVX rats with and without anxiety, which were identified in the preceding section A, were respectively randomly subdivided into 4 groups including a control group and three experimental groups (respectively designated as diosgenin groups 1-3). The diosgenin-containing pellets (made using diosgenin and toast), which were prepared according to the method as described in the section entitled “2. Diosgenin-containing pellets” of the Experimental Materials, respectively comprised the three daily dosages of diosgenin (i.e., 10, 50, and 100 mg/kg), and were respectively administered to the OVX rats in diosgenin groups 1-3 daily. In other words, the daily dosage of diosgenin administered to the OVX rats in diosgenin group 1 was 10 mg/kg, the daily dosage of diosgenin administered to the OVX rats in diosgenin group 2 was 50 mg/kg, and the daily dosage of diosgenin administered to the OVX rats in diosgenin group 3 was 100 mg/kg. The toast without diosgenin was administered daily to the OVX rats in the control group. After 23 days of administration, the OVX rats in each group were subjected to the following learned helplessness test so as to investigate the effect of diosgenin on the learning ability of the OVX rats with and without anxiety under stress.
# (§4) The learned helplessness test in this example was conducted substantially according to the methods as described in W. F. Wang et al. (2007), Chin. J. Physiol., 50:63-68 and Y. T. Lee et al. (2008), Neuroreport, 19:1243-1247, except for minor modifications. The learned helplessness test in this example is generally described as follows.
# (§5) The respective OVX rat was placed in one of the two compartments of the shuttle box, and was allowed to explore the two compartments through the central door, which was opened, for 1 minute. Afterward, the central door was closed. The respective OVX rat was subjected to 40 trials of inescapable CS-UCS pairing. Specifically, each of the 40 trials of inescapable CS-UCS pairing consisted of a CS and a subsequent UCS, and a mean interval between the two successive trials of inescapable CS-UCS pairing was 60 seconds (the interval between the two successive trials of inescapable CS-UCS pairing ranged from 50 to 70 seconds).
# (§6) The respective OVX rat was placed in one of the two compartments of the shuttle box, and was allowed to explore the two compartments through the central door, which was opened, for 1 minute. Subsequently, the respective OVX rat was subjected to 16 trials of escapable CS-UCS pairing. […]
# OVX rats = assay: Object recognition test in open box; assay type: in vivo, female Wistar rats
# Method: Three daily dosages of diosgenin, i.e., 10, 50, or 100 mg/kg, were administered to the experimental animals in the following experiments. A proper amount of diosgenin (Sigma, USA, required for formulating a respective one of the three daily dosages) was mixed with 1 g of toast or raw dough (prepared by mixing flour and water in a ratio of 2:1 (wt/wt)), thereby forming a diosgenin-containing pellet. The experimental animals were orally administered with the diosgenin-containing pellets, starting about 4 weeks after ovariectomy. The open box is made of black polyvinyl plastics. Three objects, which are respectively designated as A1, A2, and A3, are identical in terms of size, color, shape, and material, and have no specific scents. Each of the objects A1, A2, A3 was placed on the bottom of the open box and was spaced apart from a respective one of three corners C1, C2, C3 of the open box by 21 cm (see FIG. 2(A)). The object A3 was later replaced with an object B different from the object A3 in terms of size, color, shape, and material, and having no specific scents (see FIG. 2(B)). Prior to an experiment, each of the objects A1, A2, A3, B was unfamiliar to the experimental animals. The open box and the objects A1, A2, A3, B were thoroughly cleaned using 20% ethanol, and were subsequently thoroughly dried before each of the experimental animals was tested. After the female Wistar rats were raised in the animal room for 4 weeks, the same were subjected to ovariectomy according to the method as described in the section, entitled “1. Ovariectomy”, of the General Experimental Procedure. On the 29th day after the surgery, the OVX rats were randomly divided into four groups including a control group (n=20) and three experimental groups (respectively designated as diosgenin group 1 (n=20), diosgenin group 2 (n=12), and diosgenin group 3 (n=19)). The diosgenin-containing pellets (made using diosgenin and raw dough), which were prepared according to the method as described in the section entitled “2. […]
# OVX mice = conditions: cited from earlier work
# [2] = system: breast cancer-burdened mice; conditions: cited from earlier work
# OVX rats with anxiety = assay: Learned helplessness test (day-2 active avoidance test, shuttle box), OVX rats with anxiety; assay type: in vivo, female Wistar rats; conditions: 23 days; for Avoidance response (number) / Failure response (number) / Escape response (number): 16 trials, mean±SEM
# Method: as §1, §2, §3, §4, §5, §6
# [3] = diosgenin group 1, 10 mg/kg daily oral, n=7
# [4] = diosgenin group 2, 50 mg/kg daily oral, n=6
# [5] = diosgenin group 3, 100 mg/kg daily oral, n=6
# [6] = diosgenin group 1, 10 mg/kg daily oral, n=12
# [7] = diosgenin group 2, 50 mg/kg daily oral, n=11
# [8] = diosgenin group 3, 100 mg/kg daily oral, n=11
molecule,measurement,setting,value
estrogen,Bone loss after ovariectomy,[1],significantly reduced
same,Side effects on other body organs,[1],without inducing side effects on other body organs
C[C@@H]1CC[C@@]2(OC1)O[C@H]1C[C@H]3[C@@H]4CC=C5C[C@@H](O)CC[C@]5(C)[C@H]4CC[C@]3(C)[C@H]1[C@@H]2C [diosgenin],Avoidance response (number),OVX rats without anxiety; [3],1.3 ± 0.6 number
same,Escape response (number),OVX rats without anxiety; [3],11.7 ± 1.4 number
same,Failure response (number),OVX rats without anxiety; [3],3.0 ± 1.6 number
same,Avoidance response (number),OVX rats without anxiety; [4],1.2 ± 0.4 number
same,Escape response (number),OVX rats without anxiety; [4],13.8 ± 0.5 number
same,Failure response (number),OVX rats without anxiety; [4],0.7 ± 0.3 number
same,Avoidance response (number),OVX rats without anxiety; [5],2.5 ± 0.8 number
same,Escape response (number),OVX rats without anxiety; [5],12.5 ± 1.1 number
same,Failure response (number),OVX rats without anxiety; [5],0.8 ± 0.7 number
same,Number of avoidance response and number of escape response versus control group (result in words),"OVX rats without anxiety; diosgenin groups 1-3 (10, 50, 100 mg/kg daily oral)",not obviously different from those regarding the OVX rats in the control group
same,"Exploration time spent on object B in the third trial, comparison among groups (result in words)","OVX rats; diosgenin group 2, 50 mg/kg daily oral, 26 days, FIG. 3",the longest
same,Exploration time spent on object B in the third trial versus object A3 in the second trial (result in words),"OVX rats; each of diosgenin groups 1-3 (10, 50, 100 mg/kg daily oral, 26 days), FIG. 3",longer than exploration time spent on object A3 in the second trial
same,Ability to memorize a familiar object and to recognize a difference between familiar and novel object (result in words),"OVX rats; oral diosgenin-containing pellets, 26 days","able to improve the ability to memorize a familiar object and the ability to recognize a difference between the familiar object and a novel object; also recorded: able to improve the ability to memorize a familiar object, and the ability to recognize a difference between the familiar object and a novel object"
same,Epidermal thickness of OVX mice,OVX mice; animal model of menopause,capable of improving epidermal thickness
same,Keratinocyte proliferation in aged skin,OVX mice; animal model of menopause,able to restore keratinocyte proliferation in aged skin
same,Degree of fat accumulation,OVX mice,without altering the degree of fat accumulation
same,Tumor growth,[2],does not accelerate the tumor growth
same,Bone loss after ovariectomy,[1],significantly reduced
same,Side effects on other body organs,[1],without inducing side effects on other body organs
same,Avoidance response (number),OVX rats with anxiety; [6],2.5 ± 0.9 number
same,Failure response (number),OVX rats with anxiety; [6],4.2 ± 1.3 number
same,Escape response (number),"OVX rats with anxiety; diosgenin group 1, 10 mg/kg daily oral, n=12, p<0.05 vs control",9.3 ± 1.3 number
same,Avoidance response (number),OVX rats with anxiety; [7],1.3 ± 0.5 number
same,Escape response (number),OVX rats with anxiety; [7],10.4 ± 1.4 number
same,Failure response (number),OVX rats with anxiety; [7],4.4 ± 1.4 number
same,Avoidance response (number),OVX rats with anxiety; [8],1.4 ± 0.4 number
same,Escape response (number),OVX rats with anxiety; [8],13.2 ± 0.6 number
same,Failure response (number),OVX rats with anxiety; [8],1.4 ± 0.5 number
same,Learning ability of the OVX rats with anxiety (result in words),OVX rats with anxiety; oral diosgenin-containing pellets,capable of significantly improving the learning ability of the OVX rats with anxiety
"C[C@]12CC[C@H](O)CC1=CC[C@@H]1[C@@H]2CC[C@]2(C)C(=O)CC[C@@H]12 [DHEA, dehydroepiandrosterone]",Bone loss after ovariectomy,[1],significantly reduced
same,Side effects on other body organs,[1],without inducing side effects on other body organs
